Values quoted from earlier work, collected in patent publication US12176087B2, “Pharmacogenomic decision support for modulators of the NMDA, glycine, and AMPA receptors” (THE REGENT OF THE UNIVERSITY OF MICHIGAN, priority 2019, dated 2024).

Columns and labels:
[1] = test system: treatment-resistant depression (TRD) patients
TRD patients = settings: phase III trial

SMILES | TRD patients who do not remit after treatment ([1]; fraction of all TRD patients) | TRD patients with rapid antidepressant response and concomitant elevated levels of glutamate in cortex ([1]; measured by MADRS total score) | deaths reported (TRD patients) | TRD patients who experienced severe dissociative effects (TRD patients; fraction of TRD patients) | TRD patients in the treatment arm with severe psychotomimetic effects including delirium, delusion and suicidal ideation, as well as suicide attempts (TRD patients; treatment arm, additional)
CNC1(c2ccccc2Cl)CCCCC1=O (racemic) [Ketamine, RS-2-chlorophenyl-2-methylamino-cyclohexanone] | about half | approximately 50% | – | – | –
CN[C@]1(c2ccccc2Cl)CCCCC1=O [Esketamine] | – | – | 2 | a quarter | 6.9%
